{"source": "patent US7638269B2", "about": "“Viral capsid assembly intermediates and methods of production” (priority 1997, dated 2009)", "key": {"[1]": {"test_system": "immature HIV capsids (Gag Pr55)", "assay": "Cell-free translation and assembly of HIV capsids in wheat germ extract programmed with Gag transcript", "format": "biochemical", "conditions": "for Material in fractions corresponding to Final Capsid / Material in fractions corresponding to complex A / Material in fractions corresponding to complexes B/C: velocity sedimentation, apyrase added post-translationally, detergent cotranslationally", "method": "Translation of the transcription products was carried out in wheat germ extract containing ^35S methionine (ICN Pharmaceuticals, Costa Mesa, Calif.). The wheat germ extract was prepared as described by Erickson and Blobel (1983) as modified below. Reactions were performed as previously described (Lingappa, J. R., et al., J. Cell. Biol. (1984) 125:99-111), except for modifications noted below.\nA 25 microliter wheat germ transcription/translation reaction mixture contained: 5 microliters Gag transcript (prepared as described in transcription methods), 5 microliters wheat germ extract (prepared as described in wheat germ preparation; preferably using the high speed supernatant detailed in Example 4), 5 microliters 35-S Energy Mix 5× stock (Sigma Chemical Co., St. Louis, Mo.), 2.5 microliters Compensating Buffer (Sigma Chemical Co.), 1.0 microliter 40 mM MgAcetate (Sigma Chemical Co.), 2.0 microliters […] Myristoyl CoA (made up in 20 mM Tris Acetate, pH 7.6; Sigma Chemical Co.), 3.75 microliters 20 mM Tris Acetate buffer, […] (U.S. Biochemicals; Cleveland, Ohio), 0.25 microliter Creatine Kinase (4 mg/ml stock in 50% glycerol, 10 mM Tris Acetate; Boehringer Mannheim, Indianapolis, Ind.), 0.25 microliter bovine tRNA (10 mg/ml stock; Sigma Chemical Co.), and 0.25 microliter RNAse Inhibitor (20 units/50; Promega).\nMyristoyl coenzyme A (MCoA; Sigma, St. Louis, Mo.) was added at a concentration of 10 micromolar at the start of translation when indicated. Translation reactions ranged in volume from 20 to 100 microliters and were incubated at 25° C. for 150 min. Some reactions were adjusted to a final concentration of the following agents at tunes indicated in the figures and specification: 0.2 μM emetine (Sigma); 1.0 units apyrase (Sigma) per mL translation; 0.002%, 0.1%, or 1.0% “NIKKOL”. Cell-free translation and assembly reactions were also carried out successfully in rabbit reticulocyte lysate prepared as described previously (Merrick, W. C., Methods Enzymol. 101:606-615 (1983)) or obtained from commercial suppliers (Promega, Madison, Wis.). In pulse-chase experiments, translation reactions contained ^35S cysteine (Amersham Life Sciences, Cleveland, Ohio) for radiolabeling. After 4 min translation reaction time, 3 mM unlabeled cysteine was added, and the reaction was continued at 25° C. for variable chase times as indicated in the experiments described herein.\nWhere indicated, wheat germ extract prepared as described in Example 1 was centrifuged at either 50,000 rpm for 21 min or 100,000 rpm for 30 min in a TLA 100 rotor (Beckman Instruments, Palo Alto, Calif.). The supernatant (high-speed supernatant, HSS) of the 50,000 rpm spin was used for cell-free translation and assembly reactions. The pellet of the 100,000 rpm spin (high speed pellet, HSP) was resuspended at a 5× concentration in buffer (25 mM Hepes pH 7.4, 4 mM MgAc, 100 mM KAc, 0.25M sucrose). Wheat germ extract adjusted to contain a concentration 0.5% “NIKKOL” was subjected to the same ultracentrifugation in parallel to generate the detergent treated high-speed pellet (HSPd). This pellet was washed twice with […] of the above non-detergent buffer in order to remove traces of detergent, and then resuspended as described above. Following treatment with emetine at […], 1.8 μL of HSP or HSPd was added to the […] cell-free reactions programmed with HSS. Control reactions were treated with the same volume of buffer at the same time. At the end of the 150 min incubation, reactions were separated into soluble and particulate fractions and analyzed as described above.\nThe cell-free translation/assembly system of the invention contains the components described in Part A, above. Example 1 provides details of an exemplary system derived from wheatgerm extract, which is capable of supporting translation and assembly of HIV capsids. Briefly, protein synthesis was initiated in the cell-free translation/assembly system by adding an mRNA that encodes Gag Pr55 protein. […]"}, "[2]": {"test_system": "HBV capsids (HBV core)", "sequence (P03146 whole entry)": "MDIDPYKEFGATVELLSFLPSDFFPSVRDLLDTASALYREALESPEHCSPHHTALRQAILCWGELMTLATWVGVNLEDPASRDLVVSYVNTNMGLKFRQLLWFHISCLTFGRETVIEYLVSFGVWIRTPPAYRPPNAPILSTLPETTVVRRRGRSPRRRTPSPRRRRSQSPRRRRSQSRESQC", "format": "biochemical", "procedure": "The radiolabeled translation products were analyzed for formation of HBV core multimers by rae sedimentation on 10-50% sucrose gradients at 200,000 g for 1 h. Following fractionation of the gradients, the migration of radiolabeled core proteins was determined using SDS-PAGE, Coomassie staining, and autoradiography. Under these conditions, unlabeled protein standards of less than 12S, such as catalase, migrated in the first three fractions. […] The first region, at the top of the gradient (7) corresponds to the position of monomeric and small oligomeric core polypeptides, while the second region, in the middle of the gradient (M), corresponds to the position of authentic capsids. The third region, in the pellet (P), represents very high molecular weight structures. The possibility that either the pellet or the middle fraction consists of completed chains not yet released from ribosomes was ruled out by treatment of the translation products after completion of synthesis with EDTA, which is known to disassemble ribosomes (Sabatini et al., 1966).\nTo address this, pellet material was isolated by fractionating the products of a 30-min translation of HBV core on a sucrose gradient and resuspending the pellet in buffer. The resuspended pellet was divided into equal aliquots and treated either with aphyase or with buffer for 90 min at 24° C."}, "[3]": {"test_system": "HIV-1 particle formation", "format": "cell-based", "conditions": "Cos-1 cells", "method": "Cos-1 cells were transfected using Gag expression plasmids pCMVRev and PSVGagRRE-R described in Simon et al, J. Virology, (1997) 71:1013-18. HP68 plasmids for mammalian expression were constructed by using PCR to insert the coding regions for WGHP68, amino acids 1-378, Nhe1/Xba1 of pCDNA 3.1 (Invitrogen). Coding regions of all constructs were sequenced. Cells were transfected using Gibco Lipofectamine (Cos-1) or Lipofectamine Plus (293T). All transfections used a constant amount of DNA (18 μg per 60 mm dish). Medium was changed 24 hours after transfection and harvest was performed 28 or 60 hours after transfection for immunofluorescence and immunoblotting respectively. For immunofluorescence, cells were fixed in paraformaldehyde, permeabilized with 1% triton, and incubated with mouse HIV-1 Gag antibody (1:50) and affinity-purified HuHP68 antiserum (1:2000), followed by Cy3- and Cy 2-coupled secondary (Jackson) (1:200). 178 cells were quantitated. For immunoblotting in FIG. 13 rat IgG was added to medium as a tracer at 10 μg/ml at the time of harvest, and cells were harvested in SDS sample buffer with boiling. For quantitation of immunoblotts, bands were compared to an immunoblot standard curve generated with known quantities of sample. […]"}, "[4]": {"test_system": "750S immature HIV-1 capsids", "assay": "HP68 immunodepletion-reconstitution of cell-free HIV-1 capsid assembly", "format": "biochemical", "method": "WG extract (150 μl) was immunodepleted for 45 min at 4° C. with 100 μl beads coupled to antibody against WGHP68. Cell-free reactions (15 μl) were programmed (Lingappa et al., J. Cell Biol. 136:567-81 (1997)) using non-depleted WG or depleted WG. To some reactions containing depleted WG, purified WGHP68-GST or HuHP68-GST fusion protein or GST alone was added (2 μl of approx. 20 ng/μl) at the start of the reaction. After 3 hours at 26° C., NP40 was added to a final concentration of 1% and reactions underwent velocity sedimentation (5 ml, 15-60% sucrose gradients, Beckman MLS55 rotor: 45,000 rpm, 45 min). Thirty fractions, collected using a fractionator, were analyzed by SDS-PAGE and AR, followed by densitometry of Gag in each lane. For Proteinase K digestion, aliquots of fractions from the 500S and 750S regions of the gradient were collected and subjected to a 10 min incubation at RT with either no Proteinase K or 0.1 μg/ml Proteinase K. Digestion was terminated by adding SDS and freezing. Samples were analyzed by SDS-PAGE and AR. Graphs show average of three independent experiments (+/−SEM).\nTo generate purified HP68, WGHP68 and HuHP68 were subcloned into a pGEX vector (Pharmacia), to encode fusion proteins containing GST at the N-terminus. […] Concentration of fusion protein and GST in eluate was determined using the Coomassie Plus protein assay (Pierce). […]"}, "[5]": {"conditions": "emetine added after 50 min, incubated to 150 min"}}, "note": "Entries after “also recorded” stand apart in the source; their conditions may differ.", "data": [{"molecule": "Nc1ncnc2c1ncn2[C@@H]1O[C@H](COP(=O)(O)OP(=O)(O)NP(=O)(O)O)[C@@H](O)[C@H]1O", "note": "[AMP-PNP]", "values": [{"measurement": "reversal of the effect of ATP depletion on assembly", "setting": "[1]; added after apyrase treatment", "value": "not reversed"}]}, {"molecule": "O=C(O)CN(CCN(CC(=O)O)CC(=O)O)CC(=O)O", "note": "[EDTA]", "values": [{"measurement": "distribution of labeled core polypeptides in top, middle and pellet fractions", "setting": "[2]; treatment of translation products after completion of synthesis, 10 mM", "value": "largely unaffected; also recorded: had no effect"}]}, {"molecule": "CCCCCCCCCCCCCC(=O)SCCNC(=O)CCNC(=O)[C@H](O)C(C)(C)COP(=O)(O)OP(=O)(O)OC[C@H]1O[C@@H](n2cnc3c(N)ncnc32)[C@H](O)[C@@H]1OP(=O)(O)O", "note": "[MCoA, Myristoyl Coenzyme A]", "values": [{"measurement": "total amount of Pr55 synthesized", "setting": "[1]; 10 μM MCoA", "value": "had no effect on the total amount of Pr55 synthesized"}, {"measurement": "assembly into capsids", "setting": "[1]; 10 μM MCoA added at 90 min, post-translational phase", "value": "very little assembly occurred"}]}, {"molecule": "CCCCCCCCCCCCOCCOCCOCCOCCOCCOCCOCCOCCO", "note": "[NIKKOL, octaethyleneglycol mono n-dodecyl ether]", "values": [{"measurement": "capsid assembly", "setting": "[1]; 0.002% added at start of translation, 10 μM MCoA", "value": "This effect was not observed"}, {"measurement": "capsid assembly", "setting": "[1]; 0.1% added at start of translation, 10 μM MCoA", "value": "largely abolished capsid assembly"}, {"measurement": "amount of assembly", "setting": "[1]; added after completion of the 150 min assembly reaction, up to 1.0%", "value": "did not diminish the amount of assembly"}, {"measurement": "Gag polypeptide synthesis", "setting": "[1]; concentration of 0.1%", "value": "had no effect on Gag polypeptide synthesis"}, {"measurement": "assembly", "setting": "[1]; emetine and 0.1% NIKKOL, post-translational phase 50 min into the reaction", "value": "assembly was dramatically reduced"}, {"measurement": "Material in fractions corresponding to Final Capsid", "setting": "[1]", "value": 189}, {"measurement": "Material in fractions corresponding to complex A", "setting": "[1]", "value": 2656}, {"measurement": "Material in fractions corresponding to complexes B/C", "setting": "[1]", "value": 6130}]}, {"molecule": "CC[C@H]1CN2CCc3cc(OC)c(OC)cc3[C@@H]2C[C@@H]1C[C@H]1NCCc2cc(OC)c(OC)cc21", "note": "[emetine]", "values": [{"measurement": "proportion of capsid assembly", "setting": "[1]; [5]", "value": "comparable to that of the untreated control"}, {"measurement": "total Pr55 synthesis, of the control", "setting": "[1]; [5]", "value": 60, "unit": "%"}, {"measurement": "effect on treatment of the isolated pellet with energy substrates or apyrase", "setting": "[2]", "value": "did not affect the results"}]}, {"molecule": "apyrase", "values": [{"measurement": "amount of assembly (capsid stability)", "setting": "[1]; apyrase added after capsid assembly was completed", "value": "had no effect on the amount of assembly"}, {"measurement": "total amount of Pr55 synthesis", "setting": "[1]; apyrase added after emetine at 50 min", "value": "did not change the total amount of Pr55 synthesis"}, {"measurement": "capsid assembly", "setting": "[1]; apyrase added immediately after 0.2 μM emetine at 50 min, 150 min", "value": "dramatic reduction in capsid assembly"}, {"measurement": "Material in fractions corresponding to Final Capsid", "setting": "[1]", "value": 133}, {"measurement": "Material in fractions corresponding to complex A", "setting": "[1]", "value": 2851}, {"measurement": "Material in fractions corresponding to complexes B/C", "setting": "[1]", "value": 5999}, {"measurement": "release of capsids from the isolated pellet", "setting": "[2]; resuspended pellet of a 30-min translation, 90 min at 24° C.", "value": "results in release of completed capsids from the pellet"}]}, {"molecule": "WGHP68-Tr1: 379 amino acid truncated form of wheat germ HP68, stop codon before the second nucleotide-binding domain (protein) MADRLTRIAIVSEDKCKPKKCRQECKKSCPVVKTGKLCIEVSPVAKLAFISEELCIGCGICVKKCPFDAIEIINLPKDLEKDTTHRYGPNTFKLHRLPVPRPGQVLGLVGTNGIGKSTALKVLAGKLKPNLGRFKNPPDWQEILTYFRGSELQNYFTRILEDNLKAIIKPQYVDHIPKAVQGNVGQVLEQKDERDMKNELCVDLELNQVIDRNVGDLSGGELQRFAIAVVAVQSAEIYMFDEPSSYLDVKQRLKAARVIRSLLRSNSYVIVVEHDLSVLDYLSDFICCLYGKPGAYGVVTLPFSVREGINIFLAGFVPTENLRFRDESLTFKIAETQESAEEVATYQRYKYPTMSKTQGNFKLSVVEGEFTDSQIVVM", "values": [{"measurement": "Gag and actin levels in cell lysates", "setting": "[3]", "value": "remained unchanged"}, {"measurement": "toxicity to cells", "setting": "[3]", "value": "not toxic to cells"}]}, {"molecule": "WGHP68-GST: fusion protein of wheat germ HP68 with GST at the N-terminus (protein, left off: a dimerising Fc or GST, fusion protein of wheat germ HP68 with GST at the N-terminus) MADRLTRIAIVSEDKCKPKKCRQECKKSCPVVKTGKLCIEVSPVAKLAFISEELCIGCGICVKKCPFDAIEIINLPKDLEKDTTHRYGPNTFKLHRLPVPRPGQVLGLVGTNGIGKSTALKVLAGKLKPNLGRFKNPPDWQEILTYFRGSELQNYFTRILEDNLKAIIKPQYVDHIPKAVQGNVGQVLEQKDERDMKNELCVDLELNQVIDRNVGDLSGGELQRFAIAVVAVQSAEIYMFDEPSSYLDVKQRLKAARVIRSLLRSNSYVIVVEHDLSVLDYLSDFICCLYGKPGAYGVVTLPFSVREGINIFLAGFVPTENLRFRDESLTFKIAETQESAEEVATYQRYKYPTMSKTQGNFKLSVVEGEFTDSQIVVMLGENGTGKTTFIRMLAGLLKPDTMEGTEVEIPEFNVSYKPQKISPKFQHPVRHLLHSKIRDSYTHPQFVSDVMKPLQIEQLMDQEVINLSGGELQRVALCLCLGKPADIYLIDEPSAYLDSEQRIVASKVIKRFILHAKKTAFIVEHDFIMATYLADKVIVYEGLASIDCTANAPQSLVSGMNKFLSHLDITFRRDPTNYRPRINKLESTKDREQKNAGSYYYLDD", "values": [{"measurement": "total amount of radiolabeled Gag synthesized", "setting": "[4]; added to HP68 immunodepleted WG extract", "value": "had no effect"}, {"measurement": "increase in the amount of 750S capsid", "setting": "[4]; added to HP68 immunodepleted WG extract programmed with HIV-1 Gag transcript", "value": 3, "unit": "fold"}]}]}
